Experimental data reported in US20040038855A1 (priority 1999, published 2004).

Key:
[1] = tested on: micturition reflex, conscious male Sprague Dawley rats; test: Continuous Slow Transvesicular Infusion (CSTI) rat model; assay type: in vivo; design: key to Effect of MCH1 antagonist in the CSTI model: B = Produced an increase in bladder capacity in rats relative to baseline capacity
human MCH1 receptor [2] = target: T1, human MCH1 receptor (Homo sapiens, UniProt Q99705); assay type: cell-based; design: expressed in transfected cells; host or cells: COS-7; settings: linear regression, r^2=0.94
T1 sequence (Q99705 whole entry): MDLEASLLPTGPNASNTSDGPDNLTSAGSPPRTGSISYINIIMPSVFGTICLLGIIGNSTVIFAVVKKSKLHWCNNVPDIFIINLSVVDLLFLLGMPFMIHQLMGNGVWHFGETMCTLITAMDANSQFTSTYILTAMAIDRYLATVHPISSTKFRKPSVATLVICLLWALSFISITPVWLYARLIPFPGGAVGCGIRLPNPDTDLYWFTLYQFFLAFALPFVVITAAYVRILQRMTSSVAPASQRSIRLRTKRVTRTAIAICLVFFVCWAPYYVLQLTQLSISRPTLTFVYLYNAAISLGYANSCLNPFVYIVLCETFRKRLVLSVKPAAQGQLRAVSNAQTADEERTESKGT
Protocol: Guidelines for cell preparation and assay of the second messenger inositol phosphate (IP) are described below for a typical protocol involving transiently transfected Cos-7 cells; For a 96 well microplate format assay, cells are plated at 70,000 cells per well and allowed to incubate for 24 hours after the transfection procedure. The cells are then labeled with 0.5 μCi [^3H]myo-inositol per micro-well over night at 37° C., 5% CO2. Immediately before the assay, the medium is removed and replaced with 90 μl PBS containing 10 mM LiCl. The plates are then incubated for 15 minutes at 37° C., […]. Following the incubation, the transfectants are challenged with agonist (10 μl/well; 10× concentration) for 30 minutes at 37° C., 5% CO2. The challenge is terminated and the cells lysed by the addition of 100 μl cold 5% v/v trichloroacetic acid (TCA), followed by an incubation at 4° C. for greater than 30 minutes. Total IPs are isolated from the lysate by ion exchange chromatography. Briefly, the lysed contents of the wells are transferred to a Multiscreen HV filter plate (Millipore) containing 100 μl Dowex AG1-X8 suspension (50% v/v, water:resin) (200-400 mesh, formate form). The filter plates are placed on a vacuum manifold to wash and elute the resin bed. Each well is first washed 2 times with 200 μl 5 mM myoinositol. Total [^3H]IPs are eluted with 75 μl of 1.2 M ammonium formate/0.1 M formic acid into Wallac 96-well plates. 200 μl of SuperMix scintillation cocktail is added to each well, mixed well, allowed to equilibrate and counted on a Micro Beta Trilux scintillation counter. (Note: The assay may be scaled to a 24 well format by simple adjustment of reagent volumes and employing individual chromatographic columns.)
The expression vector (pEXJ) containing the MCH1 cDNA was transfected by electroporation into Cos-7 cells in combination with an expression vector (pEXJ) containing the Gα16 subunit.

human MCH1 receptor [3] = target: T1, human MCH1 receptor; test: Saturation and competition binding of [3H]Compound 10, membranes of Cos-7 cells transfected with MCH1; design: expressed in transfected cells; host or cells: COS-7; settings: 0.4 nM [3H]Compound 10; read-out: IC50, displacement of specific [3H]Compound 10 binding
Protocol: Saturation equilibrium binding of [3H]Compound 10 to the human MCH1 receptor. Membrane preparations from Cos-7 cells transfected with MCH1 were incubated with varying concentrations of [3H]Compound 10 (SA: 56 Ci/mmol) at room temperature for 90 min, in a volume of 0.250 ml. The reaction was terminated by filtration in GF/C filters, and the radioactivity determined by scintillation counting. Non-specific binding was defined as the amount of radioactivity retained in the filter after incubating the reaction mixture in the presence of unlabeled Compound 10 ([…]).
Competition binding of [3H]Compound 10 to the human MCH1 receptor. […] The reaction was terminated by filtration in GF/C filters and the radioactivity bound to the membrane was determined by scintillation counting.
[3H]Compound 10 was tested for its ability to bind to membrane preparations of cells expressing the human MCH1 receptor.

[4] = tested on: micturition reflex, anesthetized female Sprague Dawley rats; test: Distension-induced rhythmic contraction (DIRC) model; assay type: in vivo, rat; design: key: A = Produced a significant increase in contraction interval relative to pre-drug interval; settings: contraction interval, i.v. or i.p.
Protocol: The effects of compounds on the micturition reflex were assessed in the “distension-induced rhythmic contraction” (DIRC), as described in previous publications (e.g. Maggi et al, 1987; Morikawa et al, 1992), and Continuous Slow Transvesicular Infusion (CSTI) models in rats.
Female Sprague Dawley rats weighing approximately 300 g were anesthetized with subcutaneous urethane (1.2 g/kg). The trachea was cannulated with PE240 tubing to provide a clear airway throughout the experiment. A midline abdominal incision was made and the left and right ureters were isolated. The ureters were ligated distally (to prevent escape of fluids from the bladder) and cannulated proximally with PE10 tubing. The incision was closed using 4-0 silk sutures, leaving the PE10 lines routed to the exterior for the elimination of urine. The bladder was canulated via the transurethral route using PE50 tubing inserted 2.5 cm beyond the urethral opening. This cannula was secured to the tail using tape and connected to a pressure transducer. To prevent leakage from the bladder, the cannula was tied tightly to the exterior urethral opening using 4-0 silk.
To initiate the micturition reflex, the bladder was first emptied by applying pressure to the lower abdomen, and then filled with normal saline in […] (maximum 2 ml) until spontaneous bladder contractions occurred (typically 20-40 mmHg at a rate of one contraction every 2 to 3 minutes. Once a regular rhythm was established, vehicle (saline) or Test Compounds were administered i.v. or i.p. to explore their effects on bladder activity. The 5-HT1A antagonist WAY-100635 was given as a positive control. Data were expressed as contraction interval (in seconds) before drug application (basal), or after the application of vehicle or test article.

Structure (SMILES): COCC1=C(C(=O)OC)[C@H](c2ccc(F)c(F)c2)N(C(=O)NCCCN2CCC(c3cccc(NC(C)=O)c3)CC2)C(=O)N1 [Example 10, (+)-1,2,3,6-TETRAHYDRO-1-{N-[4-(3,-ACETAMIDO)-PHENYLPIPERIDIN-1-YL]PROPYL}CARBOXAMIDO-4-METHOXYMETHYL-6-(3,4-DIFLUORO-PHENYL)-2-OXOPYRIMIDINE-5-CARBOXYLIC ACID METHYL ESTER]
- bladder capacity (% basal) ([1]; 0.03 mg/kg, p.o., n=6 each, p<0.05): Significantly different from corresponding vehicle control
- Effect of MCH1 antagonist in the CSTI model ([1]; bladder capacity, intragastric): B
- slope of the Schild plot (human MCH1 receptor [2]): 0.97±0.2
- IC50 (human MCH1 receptor [3]): 0.33 nM
- Effect of MCH1 antagonist in the DIRC model [4]: A
